From ChEMBL document CHEMBL4052712, “Design and optimization of highly-selective, broad spectrum fungal CYP51 inhibitors” (Bioorg Med Chem Lett, 2017)

How the values were obtained:
[1] = molecular target: T1, Cytochrome P450 11B1, mitochondrial (Homo sapiens, UniProt P15538); assay: Inhibition of CYP11B1 in human hepatocyte microsomes using deoxycortisol substrate by HPLC/MS/MS method; format: ADME
T1 sequence (P15538 whole entry): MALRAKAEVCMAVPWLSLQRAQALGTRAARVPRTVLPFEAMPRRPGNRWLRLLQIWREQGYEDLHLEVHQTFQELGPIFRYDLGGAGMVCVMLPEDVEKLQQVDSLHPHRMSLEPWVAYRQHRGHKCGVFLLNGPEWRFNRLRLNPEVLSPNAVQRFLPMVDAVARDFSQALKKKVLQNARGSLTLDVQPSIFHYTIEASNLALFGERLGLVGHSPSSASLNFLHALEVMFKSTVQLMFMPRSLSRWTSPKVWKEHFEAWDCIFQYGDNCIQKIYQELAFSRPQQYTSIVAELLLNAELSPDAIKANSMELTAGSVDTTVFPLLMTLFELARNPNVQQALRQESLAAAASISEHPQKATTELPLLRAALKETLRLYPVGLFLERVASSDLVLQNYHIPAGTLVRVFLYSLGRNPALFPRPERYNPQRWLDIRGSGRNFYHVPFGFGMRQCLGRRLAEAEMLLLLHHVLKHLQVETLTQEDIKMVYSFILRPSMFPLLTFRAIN

[2] = Cmax in Swiss albino mouse at 5 mg/kg, po measured during 0.5 to 48 hrs post dose by HPLC/MS/MS method; format: ADME, organism-based; parameters: dose 5 mg/kg, route oral; conditions: in vivo
[3] = tested on: Brain; assay: Drug level in Swiss albino mouse brain at 5 mg/kg, po after 48 hrs assessed as relative Cmax level relative to plasma drug level by HPLC/MS/MS method; format: ADME, organism-based
[4] = molecular target: Cytochrome P450 2C19, Homo sapiens (UniProt P33261); assay: Inhibition of CYP2C19 in human hepatocyte microsomes using omeprazole substrate by HPLC/MS/MS method
[5] = tested on: Lung; assay: Drug level in Swiss albino mouse lung at 5 mg/kg, po after 48 hrs assessed as relative AUC (48 hrs) level relative to plasma drug level by HPLC/MS/MS method; format: ADME, organism-based; conditions: other tissue
[6] = Half life in Swiss albino mouse kidney at 5 mg/kg, po measured during 0.5 to 48 hrs post dose by HPLC/MS/MS method; format: ADME, organism-based
[7] = molecular target: T2, Steroid 17-alpha-hydroxylase/17,20 lyase (Homo sapiens, UniProt P05093); assay: Inhibition of CYP17 hydroxylase in human hepatocyte microsomes using pregnenolone substrate by HPLC/MS/MS method; format: ADME
T2 sequence (P05093 whole entry): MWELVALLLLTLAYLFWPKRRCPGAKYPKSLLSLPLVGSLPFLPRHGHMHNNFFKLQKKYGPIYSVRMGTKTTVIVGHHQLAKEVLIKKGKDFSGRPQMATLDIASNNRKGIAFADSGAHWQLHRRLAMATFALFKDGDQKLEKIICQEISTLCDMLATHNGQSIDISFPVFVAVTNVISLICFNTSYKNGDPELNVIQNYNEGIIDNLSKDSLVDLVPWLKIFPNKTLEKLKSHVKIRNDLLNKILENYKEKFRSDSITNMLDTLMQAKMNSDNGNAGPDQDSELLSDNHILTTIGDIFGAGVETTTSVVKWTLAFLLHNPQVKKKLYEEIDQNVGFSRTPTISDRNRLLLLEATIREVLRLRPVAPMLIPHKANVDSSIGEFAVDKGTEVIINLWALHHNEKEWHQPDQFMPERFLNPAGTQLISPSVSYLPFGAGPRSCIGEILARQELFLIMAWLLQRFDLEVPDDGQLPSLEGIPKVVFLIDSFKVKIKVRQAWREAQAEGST

[8] = molecular target: Cytochrome P450 2C9 (Homo sapiens, UniProt P11712); assay: Inhibition of CYP2C9 in human hepatocyte microsomes using diclofenac substrate by HPLC/MS/MS method; format: ADME
[9] = molecular target: T2, Steroid 17-alpha-hydroxylase/17,20 lyase; assay: Inhibition of CYP17 lyase in human hepatocyte microsomes using 17a-hydroxypregnenolone substrate by HPLC/MS/MS method; format: ADME
[10] = tested on: Lung; assay: Drug level in Swiss albino mouse lung at 5 mg/kg, po after 48 hrs assessed as relative Cmax level relative to plasma drug level by HPLC/MS/MS method; format: ADME, organism-based; conditions: in vivo
[11] = tested on: Brain; assay: Drug level in Swiss albino mouse brain at 5 mg/kg, po after 48 hrs assessed as relative AUC (48 hrs) level relative to plasma drug level by HPLC/MS/MS method; format: ADME, organism-based
[12] = molecular target: T3, Cytochrome P450 11B2, mitochondrial (Homo sapiens, UniProt P19099); assay: Inhibition of CYP11B2 in human hepatocyte microsomes using deoxycorticosteroid substrate by HPLC/MS/MS method; format: ADME
T3 sequence (P19099 whole entry): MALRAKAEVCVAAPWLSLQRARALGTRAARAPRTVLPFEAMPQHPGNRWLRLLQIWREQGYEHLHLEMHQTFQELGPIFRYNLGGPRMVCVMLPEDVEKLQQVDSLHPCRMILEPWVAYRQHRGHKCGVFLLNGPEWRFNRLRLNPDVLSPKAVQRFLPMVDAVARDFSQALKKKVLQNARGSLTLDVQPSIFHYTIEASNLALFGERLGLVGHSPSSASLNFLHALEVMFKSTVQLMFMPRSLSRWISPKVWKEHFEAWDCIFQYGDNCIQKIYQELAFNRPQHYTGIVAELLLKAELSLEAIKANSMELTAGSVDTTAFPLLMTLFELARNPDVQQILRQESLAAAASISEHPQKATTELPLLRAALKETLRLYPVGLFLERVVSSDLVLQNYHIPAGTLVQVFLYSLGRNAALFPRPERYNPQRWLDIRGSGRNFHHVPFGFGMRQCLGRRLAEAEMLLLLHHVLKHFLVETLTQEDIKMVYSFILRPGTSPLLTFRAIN

[13] = Half life in Swiss albino mouse brain at 5 mg/kg, po measured during 0.5 to 48 hrs post dose by HPLC/MS/MS method; format: ADME, organism-based
[14] = Half life in Swiss albino mouse lung at 5 mg/kg, po measured during 0.5 to 48 hrs post dose by HPLC/MS/MS method; format: ADME, organism-based

Chain of Cytochrome P450 2C19, Homo sapiens (P33261 whole entry, looked up): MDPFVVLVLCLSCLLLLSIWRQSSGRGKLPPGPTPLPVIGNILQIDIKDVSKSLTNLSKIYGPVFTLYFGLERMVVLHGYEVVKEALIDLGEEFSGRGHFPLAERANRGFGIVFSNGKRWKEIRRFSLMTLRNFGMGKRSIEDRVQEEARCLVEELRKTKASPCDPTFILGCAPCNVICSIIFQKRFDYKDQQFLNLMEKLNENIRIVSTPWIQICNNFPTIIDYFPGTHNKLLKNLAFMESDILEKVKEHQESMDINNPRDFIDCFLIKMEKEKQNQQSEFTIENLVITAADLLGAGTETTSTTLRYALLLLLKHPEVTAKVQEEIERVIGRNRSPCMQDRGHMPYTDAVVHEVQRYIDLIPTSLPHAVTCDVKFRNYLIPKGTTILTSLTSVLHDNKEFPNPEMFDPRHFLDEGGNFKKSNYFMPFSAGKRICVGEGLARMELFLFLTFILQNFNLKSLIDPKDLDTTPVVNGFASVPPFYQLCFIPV
Chain of Cytochrome P450 2C9 (P11712 whole entry): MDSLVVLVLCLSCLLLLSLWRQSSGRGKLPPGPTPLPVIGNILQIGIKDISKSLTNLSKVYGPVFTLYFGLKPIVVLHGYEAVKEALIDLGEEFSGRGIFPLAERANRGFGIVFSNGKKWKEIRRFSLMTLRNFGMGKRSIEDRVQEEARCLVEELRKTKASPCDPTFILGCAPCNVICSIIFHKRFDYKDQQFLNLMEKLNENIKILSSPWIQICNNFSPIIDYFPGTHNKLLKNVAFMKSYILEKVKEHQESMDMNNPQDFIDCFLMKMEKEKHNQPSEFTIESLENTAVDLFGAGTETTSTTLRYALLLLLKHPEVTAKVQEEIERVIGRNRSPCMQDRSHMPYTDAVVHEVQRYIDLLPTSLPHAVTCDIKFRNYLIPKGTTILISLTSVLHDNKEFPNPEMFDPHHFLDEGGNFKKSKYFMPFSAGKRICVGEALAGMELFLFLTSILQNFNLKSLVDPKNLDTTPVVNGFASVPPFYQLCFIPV

IC50 [1]: > 100 µM | Cmax [2]: 2500 ng/mL | Drug uptake [3]: 58% | IC50 [4]: 138 µM | Drug uptake [5]: 94% | half-life [6]: 16 to 19 h | IC50 [7]: > 100 µM | IC50 [8]: > 200 µM | IC50 [9]: 38 µM | Drug uptake [10]: 116% | Drug uptake [11]: 65% | IC50 [12]: > 100 µM | half-life [13]: 16 to 19 h | half-life [14]: 16 to 19 h
Structure (SMILES): N#Cc1ccc(COc2ccc(C#Cc3ccc(C(F)(F)C(O)(Cn4cnnn4)c4ccc(F)cc4F)nc3)cc2)cc1 (single isomer, unassigned; (+))
